# Activity calls are given as the source filed them.
# Columns and labels:
# [1] = tested on: HEK293; experiment: inhibitors of LMP1-driven NF-kB reporter, dose response, cell-based, HEK293, luciferase, cherry-pick (AID 588343); assay type: functional; conditions: Homo sapiens
# [2] = LGR2 antagonists, dose response, cell-based, HEK293, CRE-luciferase reporter, cherry pick, set 2 (AID 743343); assay type: functional;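 also: transfected cells were stimulated with diluted bursicon conditioned medium after compound addition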
# [3] = A549 cell cytotoxicity, dose response, cytotoxicity control, plate reader, cherry-pick, antagonist series (AID 743412); assay type: functional, cell-based
# [4] = MC4R antagonists, dose response, counter-screen for LGR2 antagonist project, cell-based, plate reader, cherry pick (AID 743444); assay type: functional;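 also: transfected HEK 293 cells stimulated with alpha-MSH peptide; potency of inhibitors of the alpha-MSH evoked signal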
# [5] = target: ATP-dependent molecular chaperone HSP82 (Candida albicans (strain WO-1) (Yeast), UniProt C4YTQ8); experiment: loss of DOC-induced GRE-beta-galactosidase reporter signal, dose response, Hsp90 inhibitor project, S. cerevisiae, luminescence (AID 2400); assay type: functional, cell-based;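 also: beta-galactosidase luminescence from glucocorticoid response element reporter as proxy for Hsp90 function; inhibitor potency where signal loss means Hsp90 inhibition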
# Chain of ATP-dependent molecular chaperone HSP82 (C4YTQ8 whole entry): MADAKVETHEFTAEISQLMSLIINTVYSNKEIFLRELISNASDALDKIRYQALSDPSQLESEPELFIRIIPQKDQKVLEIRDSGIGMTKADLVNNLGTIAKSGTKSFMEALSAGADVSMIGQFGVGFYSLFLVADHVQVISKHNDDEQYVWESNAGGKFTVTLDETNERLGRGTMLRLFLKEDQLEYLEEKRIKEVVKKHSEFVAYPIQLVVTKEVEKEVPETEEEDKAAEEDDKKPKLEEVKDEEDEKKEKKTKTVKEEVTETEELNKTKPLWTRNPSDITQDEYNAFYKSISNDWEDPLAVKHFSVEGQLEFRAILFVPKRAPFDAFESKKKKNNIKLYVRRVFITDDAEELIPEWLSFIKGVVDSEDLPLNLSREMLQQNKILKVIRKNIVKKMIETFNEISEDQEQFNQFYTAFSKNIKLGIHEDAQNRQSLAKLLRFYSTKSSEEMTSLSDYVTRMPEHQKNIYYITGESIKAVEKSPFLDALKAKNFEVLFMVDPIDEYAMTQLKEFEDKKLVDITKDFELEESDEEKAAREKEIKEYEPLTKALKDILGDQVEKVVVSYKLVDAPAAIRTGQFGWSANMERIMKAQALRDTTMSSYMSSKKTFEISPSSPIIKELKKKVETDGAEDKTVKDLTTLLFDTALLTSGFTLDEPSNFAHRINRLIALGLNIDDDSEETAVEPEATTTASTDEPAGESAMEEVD
# [6] = target: Matrix metalloproteinase-14 (Homo sapiens, UniProt P50281); experiment: Dose Response confirmation of uHTS hits for a small molecule inhibitors of MT1-MMP activation in a fluorescence assay set 1.; assay type: functional
# [7] = NIH-3T3 fibroblast cytotoxicity, dose response, cytotoxicity control, cell-based, fluorescence, Alamar Blue, secondary assay (AID 2327); assay type: functional;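 also: NIH-3T3 mouse fibroblasts cultured with fluconazole at 8 µg/mL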
# [8] = tested on: Streptococcus; experiment: Group A Streptococcus viability loss, dose response, counter-screen for streptokinase expression inhibitor project, luminescence, BacTiterGlo (AID 1915); assay type: functional, organism-based;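 also: potency for reduction of bacterial viability or growth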
# [9] = C. albicans growth with fluconazole, confirmation, fluorescence, retest (AID 2467); assay type: functional, cell-based
# [10] = tested on: Streptococcus sp. 'group A'; experiment: growth inhibition of control SK(-) GAS strain, dose response, counter-screen for streptokinase expression inhibitor project, luminescence, kanamycin, BacTiterGlo, confirmation (AID 1900); assay type: functional, organism-based
# [11] = target: T1, Kappa-type opioid receptor (Homo sapiens, UniProt P41145); assay type: functional
# T1 sequence (P41145 whole entry): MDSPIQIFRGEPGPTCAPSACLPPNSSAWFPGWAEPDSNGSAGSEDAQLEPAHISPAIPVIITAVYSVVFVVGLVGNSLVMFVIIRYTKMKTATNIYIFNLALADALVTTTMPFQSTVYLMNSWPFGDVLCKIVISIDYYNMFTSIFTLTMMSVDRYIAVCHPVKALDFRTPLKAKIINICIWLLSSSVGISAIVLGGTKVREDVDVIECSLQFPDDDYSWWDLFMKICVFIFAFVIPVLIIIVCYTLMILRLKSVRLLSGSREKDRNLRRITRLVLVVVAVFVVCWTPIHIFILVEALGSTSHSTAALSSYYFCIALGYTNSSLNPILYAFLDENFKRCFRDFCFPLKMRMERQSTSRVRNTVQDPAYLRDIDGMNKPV
# [12] = target: T1, Kappa-type opioid receptor; assay type: functional; remark: listed apart in the source
# [13] = target: Beta-galactosidase (Escherichia coli, UniProt Q8VNN2); assay type: functional
# Chain of Beta-galactosidase (Q8VNN2 whole entry): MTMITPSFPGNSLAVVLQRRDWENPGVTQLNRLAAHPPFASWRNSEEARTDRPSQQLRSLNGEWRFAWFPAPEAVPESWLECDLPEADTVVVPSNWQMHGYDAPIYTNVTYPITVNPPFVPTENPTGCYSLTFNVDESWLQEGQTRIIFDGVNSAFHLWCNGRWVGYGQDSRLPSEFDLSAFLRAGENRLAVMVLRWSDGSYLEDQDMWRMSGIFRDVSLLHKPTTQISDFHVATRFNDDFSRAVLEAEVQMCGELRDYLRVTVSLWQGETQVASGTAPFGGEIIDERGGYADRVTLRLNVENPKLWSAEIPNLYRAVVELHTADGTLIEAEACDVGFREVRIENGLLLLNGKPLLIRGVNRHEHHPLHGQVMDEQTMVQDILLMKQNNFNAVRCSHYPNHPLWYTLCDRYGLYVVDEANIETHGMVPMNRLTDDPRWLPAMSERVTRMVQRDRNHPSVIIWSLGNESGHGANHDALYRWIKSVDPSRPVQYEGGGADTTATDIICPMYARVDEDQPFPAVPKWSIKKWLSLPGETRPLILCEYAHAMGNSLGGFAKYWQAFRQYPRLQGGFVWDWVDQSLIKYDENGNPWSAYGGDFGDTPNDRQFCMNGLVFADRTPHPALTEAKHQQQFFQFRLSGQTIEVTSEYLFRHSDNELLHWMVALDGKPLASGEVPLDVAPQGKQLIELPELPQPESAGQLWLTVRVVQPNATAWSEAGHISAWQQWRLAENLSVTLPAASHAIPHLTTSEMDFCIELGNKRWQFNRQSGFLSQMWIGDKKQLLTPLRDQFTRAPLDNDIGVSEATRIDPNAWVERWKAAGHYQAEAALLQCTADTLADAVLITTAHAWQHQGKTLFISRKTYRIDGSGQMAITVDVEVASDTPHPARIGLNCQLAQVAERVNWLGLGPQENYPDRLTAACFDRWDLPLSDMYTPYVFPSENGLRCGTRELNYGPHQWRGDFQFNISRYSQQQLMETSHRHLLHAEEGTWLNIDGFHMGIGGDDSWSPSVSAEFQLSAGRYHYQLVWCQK
# [14] = target: Heat shock protein HSP 90-alpha (Homo sapiens, UniProt P07900); assay type: functional, organism-based
# [15] = tested on: Vero; experiment: cells; assay type: functional; conditions: Chlorocebus sabaeus
# [16] = target: T2, Serine/threonine-protein phosphatase (Candida dubliniensis (strain CD36 / CBS 7987 / NCPF 3949 / NRRLY-17841) (Yeast), UniProt B9W6M3); experiment: calcineurin pathway inhibitors in yeast reporter, dose response, S. cerevisiae, CDRE-lacZ, luminescence, secondary (AID 2388); assay type: functional, cell-based;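 also: yeast reporter cells carrying a calcineurin-responsive lacZ construct stimulated with calcium chloride; luminescent beta-galactosidase reporter signal in whole cells rather than isolated phosphatase activity; potency for inhibition where a drop in reporter signal means calcineurin blockade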
# T2 sequence (B9W6M3 whole entry): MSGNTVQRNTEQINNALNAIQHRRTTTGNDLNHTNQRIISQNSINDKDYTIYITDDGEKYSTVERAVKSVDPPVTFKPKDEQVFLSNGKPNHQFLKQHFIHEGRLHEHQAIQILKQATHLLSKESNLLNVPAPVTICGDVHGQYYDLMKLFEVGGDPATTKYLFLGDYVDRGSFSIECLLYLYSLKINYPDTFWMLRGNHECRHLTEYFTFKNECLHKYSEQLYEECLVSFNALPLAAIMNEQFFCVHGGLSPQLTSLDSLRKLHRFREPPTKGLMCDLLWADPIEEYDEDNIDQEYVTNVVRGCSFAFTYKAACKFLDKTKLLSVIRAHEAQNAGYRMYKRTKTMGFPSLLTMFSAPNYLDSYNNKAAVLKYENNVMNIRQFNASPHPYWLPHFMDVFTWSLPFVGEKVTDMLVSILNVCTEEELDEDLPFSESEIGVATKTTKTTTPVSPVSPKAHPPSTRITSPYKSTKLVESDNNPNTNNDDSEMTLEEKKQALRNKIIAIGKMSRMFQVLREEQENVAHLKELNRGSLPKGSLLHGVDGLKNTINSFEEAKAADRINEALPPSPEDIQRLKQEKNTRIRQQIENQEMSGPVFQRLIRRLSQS
# [17] = target: COUP transcription factor 2 (Homo sapiens, UniProt P24468); experiment: Luminescence-based cell-based high throughput dose response assay to identify inhibitors of COUP-TFII (NR2F2).; assay type: functional;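 also: HEK293 cells transiently cotransfected with COUP-TFII expression vector and reporter; luciferase reporter luminescence driven by COUP-TFII from the pX2-168 reporter plasmid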
# Chain of COUP transcription factor 2 (P24468 whole entry, the tested form may be a part): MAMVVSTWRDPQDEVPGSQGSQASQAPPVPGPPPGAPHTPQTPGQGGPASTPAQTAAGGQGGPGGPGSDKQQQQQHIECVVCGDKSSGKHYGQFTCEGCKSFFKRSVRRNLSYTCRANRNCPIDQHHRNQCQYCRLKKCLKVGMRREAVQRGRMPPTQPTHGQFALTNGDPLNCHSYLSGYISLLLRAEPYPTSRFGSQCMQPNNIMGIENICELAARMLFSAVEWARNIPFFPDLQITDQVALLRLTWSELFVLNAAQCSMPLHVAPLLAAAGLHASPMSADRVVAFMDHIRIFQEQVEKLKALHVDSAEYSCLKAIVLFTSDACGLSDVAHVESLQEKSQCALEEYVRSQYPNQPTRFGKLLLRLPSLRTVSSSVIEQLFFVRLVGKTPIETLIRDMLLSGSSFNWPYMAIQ
# [18] = target: T3, Oxysterols receptor LXR-beta (Homo sapiens, UniProt P55055); assay type: functional, cell-based;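 also: agonist activity at LXR measured by a cell-based luminescence readout across a dose range, run as a counterscreen for daf-12 agonists; HEK293 cells with Gal4-LXR fusion and GAL4-driven luciferase reporter; potency for activation of Gal4-LXR reporter so compounds are agonists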
# T3 sequence (P55055 whole entry): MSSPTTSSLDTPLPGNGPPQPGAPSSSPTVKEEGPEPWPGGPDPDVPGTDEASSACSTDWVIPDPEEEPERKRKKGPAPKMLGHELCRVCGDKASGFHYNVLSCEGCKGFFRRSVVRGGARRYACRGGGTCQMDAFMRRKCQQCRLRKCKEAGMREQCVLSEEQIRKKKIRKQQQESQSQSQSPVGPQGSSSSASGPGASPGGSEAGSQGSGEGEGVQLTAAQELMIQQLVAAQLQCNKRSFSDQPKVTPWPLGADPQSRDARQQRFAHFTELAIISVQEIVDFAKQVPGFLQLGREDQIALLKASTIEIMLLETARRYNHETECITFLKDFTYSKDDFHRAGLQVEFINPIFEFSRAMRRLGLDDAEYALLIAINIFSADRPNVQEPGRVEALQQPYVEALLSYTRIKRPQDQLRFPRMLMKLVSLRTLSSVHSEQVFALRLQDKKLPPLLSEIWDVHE
# [19] = target: Tyrosyl-DNA phosphodiesterase 2 (Homo sapiens, UniProt O95551); experiment: human TDP2 enzyme inhibitors, dose response, biochemical, epi absorbance, IC50 (AID 743297)
# Chain of Tyrosyl-DNA phosphodiesterase 2 (O95551 whole entry): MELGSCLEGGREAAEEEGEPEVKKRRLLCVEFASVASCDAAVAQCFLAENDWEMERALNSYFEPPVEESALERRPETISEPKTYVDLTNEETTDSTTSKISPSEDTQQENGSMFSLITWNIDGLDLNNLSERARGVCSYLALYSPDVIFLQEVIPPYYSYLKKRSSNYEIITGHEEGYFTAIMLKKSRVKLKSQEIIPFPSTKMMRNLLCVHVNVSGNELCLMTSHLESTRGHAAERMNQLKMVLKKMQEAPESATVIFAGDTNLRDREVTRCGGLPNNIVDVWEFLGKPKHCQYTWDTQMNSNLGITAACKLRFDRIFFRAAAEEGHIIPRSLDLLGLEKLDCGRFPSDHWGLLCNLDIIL
# [20] = target: T4, Corticotropin-releasing factor receptor 2/Corticotropin-releasing factor-binding protein (Homo sapiens, UniProt P24387+Q13324); experiment: activators of CRF receptor 2 with binding protein – uHTS hits, confirmation (AID 602473); assay type: functional; conditions: read-out: EC50_Mean
# T4 sequence (Q13324 whole entry): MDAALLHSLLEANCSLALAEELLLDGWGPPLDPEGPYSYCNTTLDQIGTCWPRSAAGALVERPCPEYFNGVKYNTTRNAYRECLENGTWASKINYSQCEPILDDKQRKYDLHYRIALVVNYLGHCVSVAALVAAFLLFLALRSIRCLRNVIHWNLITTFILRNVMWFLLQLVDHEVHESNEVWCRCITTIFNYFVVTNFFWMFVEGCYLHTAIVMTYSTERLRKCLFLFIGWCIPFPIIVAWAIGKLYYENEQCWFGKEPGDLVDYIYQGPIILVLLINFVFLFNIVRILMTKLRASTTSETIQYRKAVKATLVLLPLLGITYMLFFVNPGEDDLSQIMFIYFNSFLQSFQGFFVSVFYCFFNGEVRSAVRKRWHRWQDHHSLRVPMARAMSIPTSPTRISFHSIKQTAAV
# T4 sequence (P24387 whole entry): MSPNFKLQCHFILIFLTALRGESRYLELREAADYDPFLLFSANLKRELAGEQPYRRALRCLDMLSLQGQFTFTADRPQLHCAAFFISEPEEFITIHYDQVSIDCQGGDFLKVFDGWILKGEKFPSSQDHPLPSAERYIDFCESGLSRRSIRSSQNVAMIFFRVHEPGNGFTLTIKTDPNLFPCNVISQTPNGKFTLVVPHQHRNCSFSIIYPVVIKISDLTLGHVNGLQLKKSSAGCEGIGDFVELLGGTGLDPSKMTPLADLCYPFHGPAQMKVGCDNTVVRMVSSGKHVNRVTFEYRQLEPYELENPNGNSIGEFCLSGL
# [21] = target: fMet-Leu-Phe receptor (Homo sapiens, UniProt P21462); experiment: FPR ligands, dose response (AID 519); assay type: functional
# Chain of fMet-Leu-Phe receptor (P21462 whole entry): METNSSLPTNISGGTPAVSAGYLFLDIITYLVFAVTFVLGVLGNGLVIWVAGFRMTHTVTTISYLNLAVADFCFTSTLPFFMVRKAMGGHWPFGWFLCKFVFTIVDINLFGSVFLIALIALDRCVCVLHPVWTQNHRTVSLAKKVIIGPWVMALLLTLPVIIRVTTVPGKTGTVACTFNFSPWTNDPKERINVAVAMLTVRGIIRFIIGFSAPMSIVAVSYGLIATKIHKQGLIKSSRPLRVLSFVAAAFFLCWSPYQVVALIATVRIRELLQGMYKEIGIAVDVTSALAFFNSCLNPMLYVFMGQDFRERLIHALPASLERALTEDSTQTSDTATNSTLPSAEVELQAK
# [22] = target: FAD-linked sulfhydryl oxidase ALR (Homo sapiens, UniProt P55789); experiment: inhibitors of human ALR sulfhydryl oxidase, dose response, biochemical, H2O2 detection, luminescence, cherry-pick (AID 493248)
# Chain of FAD-linked sulfhydryl oxidase ALR (P55789 whole entry): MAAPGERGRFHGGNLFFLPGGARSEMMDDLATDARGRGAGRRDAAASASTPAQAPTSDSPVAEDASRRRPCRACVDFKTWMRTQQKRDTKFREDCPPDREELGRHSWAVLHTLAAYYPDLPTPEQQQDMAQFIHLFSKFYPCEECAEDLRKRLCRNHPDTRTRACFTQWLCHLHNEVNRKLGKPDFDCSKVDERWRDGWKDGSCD
# [23] = target: T4, Corticotropin-releasing factor receptor 2/Corticotropin-releasing factor-binding protein; experiment: Dose Response confirmation of uHTS hits for small molecule antagonists of the CRF-binding protein and CRF-R2 receptor complex.; assay type: functional; conditions: read-out: IC50_Mean
# [24] = target: Albumin (Bos taurus, UniProt P02769); experiment: Counterscreen for inhibitors of T-cell receptor (TCR)-CD3 interaction: Fluorescence-based biochemical high throughput dose response assay to identify inhibitors of T-cell receptor (TCR)-CD3 interaction using a TAMRA-labeled BSA probe.; assay type: functional
# Chain of Albumin (P02769 whole entry): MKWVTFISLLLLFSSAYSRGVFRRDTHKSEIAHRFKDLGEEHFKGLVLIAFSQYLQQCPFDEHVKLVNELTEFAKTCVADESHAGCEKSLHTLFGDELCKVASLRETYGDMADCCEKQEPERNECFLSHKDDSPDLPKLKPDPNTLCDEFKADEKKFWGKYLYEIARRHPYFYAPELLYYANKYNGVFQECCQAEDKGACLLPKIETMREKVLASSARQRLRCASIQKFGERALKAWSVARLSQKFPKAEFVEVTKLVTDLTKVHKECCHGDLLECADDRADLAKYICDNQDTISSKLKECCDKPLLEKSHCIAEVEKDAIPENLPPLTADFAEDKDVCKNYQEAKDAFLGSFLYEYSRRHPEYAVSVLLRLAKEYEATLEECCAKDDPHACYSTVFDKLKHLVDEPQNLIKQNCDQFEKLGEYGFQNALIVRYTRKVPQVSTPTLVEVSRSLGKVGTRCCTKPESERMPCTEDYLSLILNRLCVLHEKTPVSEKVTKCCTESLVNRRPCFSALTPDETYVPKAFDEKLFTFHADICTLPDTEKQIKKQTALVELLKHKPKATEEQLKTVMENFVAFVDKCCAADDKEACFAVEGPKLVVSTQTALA
# [25] = human group III sPLA2 inhibitors, dose response, biochemical, QFRET, IC50 (AID 743457);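 also: green fluorescence rise as the enzyme cleaves BODIPY PC-A2 in liposomes; potency for inhibition of the enzyme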
# [26] = CEM21 lymphoblast cell cytotoxicity, dose response, cytotoxicity control for viral fusion inhibitor project, CellTiter-Glo luminescence, cherry-picked (AID 652042); assay type: functional, cell-based;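 also: potency for signal decrease meaning cytotoxicity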
# [27] = cytotoxicity in OVCAR8 ovarian cancer cells, dose response, PAX8 project, cell-based, plate reader, dry powder samples (AID 743197); assay type: functional; conditions: OVCAR-8
# [28] = target: Paired box protein Pax-8 (Homo sapiens, UniProt Q06710); experiment: inhibitors of PAX8-driven TPO luciferase reporter, dose response, RMG-I cells, cherry-pick (AID 687027); assay type: functional, cell-based;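 also: luciferase reporter driven by Pax8 target thyroperoxidase promoter measured by SteadyGlo luminescence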
# Chain of Paired box protein Pax-8 (Q06710 whole entry): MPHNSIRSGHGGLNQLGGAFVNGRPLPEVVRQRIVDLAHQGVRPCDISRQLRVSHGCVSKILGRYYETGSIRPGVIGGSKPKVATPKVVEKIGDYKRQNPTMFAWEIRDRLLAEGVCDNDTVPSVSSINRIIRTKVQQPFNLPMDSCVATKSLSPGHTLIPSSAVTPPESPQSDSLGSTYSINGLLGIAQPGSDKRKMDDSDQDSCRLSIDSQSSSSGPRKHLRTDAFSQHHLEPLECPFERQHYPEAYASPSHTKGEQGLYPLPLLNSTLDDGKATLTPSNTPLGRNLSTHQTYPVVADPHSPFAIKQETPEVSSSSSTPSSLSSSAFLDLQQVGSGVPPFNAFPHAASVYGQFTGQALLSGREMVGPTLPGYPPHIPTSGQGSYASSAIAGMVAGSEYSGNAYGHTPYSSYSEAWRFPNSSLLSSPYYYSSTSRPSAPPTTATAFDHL
# [29] = NIH:OVCAR-3 ovarian cancer cell cytotoxicity, dose response, PAX8 inhibitor project, plate reader, dry powder samples (AID 743044); assay type: functional, cell-based
smiles,measurement,setting,value
O=C(Nc1ccc(N2CCOCC2)cc1)c1cnccn1,AC50,[1],2.09 µM (active)
same,AC50,[2],4.37 µM (active)
same,AC50,[3],> 52 µM (inactive)
same,AC50,[4],3.9 µM (active)
COc1ccc(C)cc1N=Nc1ccc(O)c2ncccc12,EC50,[5],2.92 µM (active)
same,IC50,[6],23.8 µM (inactive)
same,EC50,[7],11.1 µM (active)
same,EC50,[8],2.67 µM (active)
same,EC50,[9],0.598 µM (active)
same,EC50,[10],0.357 µM (active)
same,IC50,[11],> 31.5 µM (inactive)
same,IC50,[12],> 32 µM
same,EC50,[13],23.6 µM (active)
same,AC50,[14],1.57 µM (active)
same,CC50,[15],5.17 µM (active)
same,EC50,[16],> 180 µM (inactive)
Cc1sc(NC(=O)CN2CCOCC2)nc1-c1ccc2c(c1)CCN2S(=O)(=O)c1ccccc1,IC50,[17],8.52 µM (active)
CCOc1ccc(-c2c(=O)n(O)c3ccccc3[n+]2[O-])cc1,EC50,[18],> 67.5 µM (inactive)
O=C(NC(=S)Nc1ccccc1N1CCCC1)c1ccco1,IC50,[19],> 128 µM (inactive)
Cc1ccc(Nc2ccc(C(=O)O)cc2N)cc1,EC50,[20],> 53 µM (inactive)
same,Ki,[21],> 66.7 µM (inactive)
same,AC50,[22],0.246 µM (active)
same,IC50,[23],> 47.1 µM (inactive)
Cc1ccccc1NC(=O)NNC(=O)c1ccc2ccccc2c1O,IC50,[24],> 94.2 µM (inactive)
same,IC50,[25],> 122 µM (inactive)
Cc1ccc(NC(=O)c2ccc(OCC3CCCO3)cc2)cc1Cl (centres undefined),AC50,[26],50 µM (active)
CO[C@H]1CN(C)C(=O)c2cc(NC(=O)c3ccc(-c4ccccc4)cc3)ccc2OC[C@@H](C)NC[C@@H]1C,AC50,[27],58.4 µM (active)
same,AC50,[28],22.6 µM (active)
same,AC50,[29],44.6 µM (active)
